Experimental data reported in patent publication US10548894B2, “Combination therapy” (Array BioPharma Inc., priority 2013, dated 2020).

Legend:
[1] = system: A-375 cells expressing truncated p61-BRAFV600E; assay: ATP-based CTG (Cell Titer Glo) cell viability assay, 72 h; settings: Homo sapiens, A-375 p61 BRafV600E, single agent
Procedure: (§1) Compound stocks are prepared in DMSO at a final concentration of 10 mM.
(§2) A-375 and WM-266-4 cells were purchased from American Type Culture Collection (ATCC). The A-375 cells were cultured in DMEM medium (ATCC) and the WM-266-4 cells were cultured in EMEM medium (ATCC) both supplemented with 10% fetal bovine serum (Gibco) and incubated at 37° C./5% CO2. The cell lines engineered to express commonly occurring alleles indicative of resistance were acquired from Novartis-Emeryville. These resistant models include, A-375 cells expressing mutant MEK1P124L, truncated p61-BRAFV600E, or mutant NRASQ61K, and WM-266-4 cells expressing mutant MEK1C121S, truncated p61-BRAFV600E, or mutant NRASQ61K. These cells were cultured in the appropriate parental medium with selection marker G418 and in the presence of 5 uM LFE158 (MEK mutants) or LIH720 (truncated p61-BRAFV600E).
(§3) For screening, cells were seeded in 80 ul of medium in 384-well plates (Thermo Scientific, cat#4332) at 500 (A-375) or 750 (WM-266-4) cell densities per well using a MultiDrop Combi (Thermo-Fisher) with an 8-channel standard cassette. To promote an even distribution of cells across the entire well, cells were briefly centrifuged at 1000 RPM and incubated at room temperature 30 minutes. All plates were incubated at 37° C., 5% CO2 for 24 h prior to compound addition. Compound stock was freshly prepared in the appropriate culture medium, and added using a PAA robot equipped with a 200n1 pin tool. In a minimum of three replicate wells, single agent and combination effects after 72 hours, were assessed by both quantification of cellular ATP levels via Cell Titer Glo (Promega) according to the manufacturer's protocol and by microscopy imaging. For imaging, cells were fixed to the plates and permeabilized with a solution of 10% PFA, 0.3% TX-100 in PBS via a WellMate dispenser with controlled dispensing speeds. Cell nuclei were stained with Hoechst 33342 (H3570, Invitrogen), and all necessary washing steps were performed by a BioTek washer. […]

[2] = system: WM-266-4 cells expressing truncated p61-BRAFV600E; assay: as above; settings: Homo sapiens, WM-266-4 p61 BRafV600E, single agent
Procedure: as §1, §2, §3

[3] = system: A-375 cells expressing mutant MEK1P124L; assay: Microscopy imaging assay (viable nuclei count), 72 h; type: cell-based; settings: Homo sapiens, A-375 MEK1P124L, single agent
Procedure: (§4) Compound stocks are prepared in DMSO at a final concentration of 10 mM. Working stocks are serially diluted in the appropriate cell culture medium in 3-fold increments to achieve final assay concentrations ranging from 2.7 μM to 1.2 nM.
as §2
(§5) For screening, cells were seeded in 80 ul of medium in 384-well plates (Thermo Scientific, cat#4332) at 500 (A-375) or 750 (WM-266-4) cell densities per well using a MultiDrop Combi (Thermo-Fisher) with an 8-channel standard cassette. To promote an even distribution of cells across the entire well, cells were briefly centrifuged at 1000 RPM and incubated at room temperature 30 minutes. All plates were incubated at 37° C., 5% CO2 for 24 h prior to compound addition. Compound stock was freshly prepared in the appropriate culture medium, and added using a PAA robot equipped with a 200n1 pin tool. In a minimum of three replicate wells, single agent and combination effects after 72 hours, were assessed by both quantification of cellular ATP levels via Cell Titer Glo (Promega) according to the manufacturer's protocol and by microscopy imaging. For imaging, cells were fixed to the plates and permeabilized with a solution of 10% PFA, 0.3% TX-100 in PBS via a WellMate dispenser with controlled dispensing speeds. Cell nuclei were stained with Hoechst 33342 (H3570, Invitrogen), and all necessary washing steps were performed by a BioTek washer.
(§6) An automated image analysis pipeline was established using custom-made scripts in the open-source, statistical programming language R, and functions of the BioConductor package EBImage. The goal was to quantify the number of viable nuclei (cells) per well as an approximation for cell viability. The pipeline was comprised of seven steps: (I.) smoothing of the image to reduce the number of intensity peaks, (II.) application of a thresholding function to separate the foreground (signal) from the background (noise), (III.) identification of local maxima in the foreground that serve as seeds for the nuclei, (IV.) filtering of local maxima in close proximity, (V.) propagation of the nuclei from remaining local maxima, (VI.) and extraction of object features from the propagated nuclei (numbers of nuclei, size features and intensity features). As a last step (VII.), to exclude debris (e.g. fragmented nuclei) from counting, objects identified in DMSO- and Staurosporin-treated wells were used to obtain feature distributions for viable and fragmented nuclei, respectively. These were used to set cut-offs differentiating between viable and fragmented nuclei. The number of fragmented nuclei was subtracted from the total number of identified objects and the result was reported as final count for that well.
(§7) Data comprised triplicate measurements for each treatment (compound) condition, 42 replicates of DMSO-treated wells, and duplicates of Staurosporin-treated wells. The data was normalized to the median of the DMSO measurements and summarized by calculating the median of the triplicates. Data was imported into Chalice to calculate compound synergies.

[4] = system: A-375 cells expressing mutant NRASQ61K; assay: as above; type: cell-based; settings: Homo sapiens, A-375 NRASQ61K, single agent
Procedure: as §4, §2, §5, §6, §7

A-375 cells = assay: as above; type: cell-based; settings: Homo sapiens, A-375 parent, single agent
Procedure: as §4, §2, §5, §6, §7

[5] = system: WM-266-4 cells expressing mutant MEK1C121S; assay: as above; type: cell-based; settings: Homo sapiens, WM-266-4 MEK1C121S, single agent
Procedure: as §4, §2, §5, §6, §7

WM-266-4 cells = assay: as above; type: cell-based; settings: Homo sapiens, WM-266-4 parent, single agent
Procedure: as §4, §2, §5, §6, §7

SMILES: COC(=O)N[C@@H](C)CNc1nccc(-c2cn(C(C)C)nc2-c2cc(Cl)cc(NS(C)(=O)=O)c2F)n1 [Compound of Formula (I)]
- IC50 [1]: 576 nM
- IC50 [2]: 906 nM
- IC50 [3]: 300 nM
- IC50 [4]: 133 nM
- IC50 (A-375 cells): 4 nM
- IC50 [5]: 58 nM
- IC50 (WM-266-4 cells): 3 nM
